The text below walks through data of patent US20040176431A1, “Antiproliferative 2-(sulfo-phenyl)-aminothiazole derivatives and pharmaceutical compositions, and methods for their use” (Pfizer, Inc., priority 2003, published 2004).

In the test the target is T1, CDK4/cyclin D3 (Homo sapiens, UniProt P11802).
T1 construct: made in house; host or cells: insect cells (baculovirus co-infection)
The test is described as follows: Inhibition of CDK4/Cyclin D retinoblastoma kinase activity.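 On % Inhib CDK4/D @ 1 μM: relative to DMSO control wells without compound minus no-enzyme background.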 Format: biochemical. The note with it: for inhibition at 0.1 µM / % Inhib CDK4/D @ 0.1 μM: test compound at 0.1 μM; for inhibition at 0.1 µM: read-out: % Inhib CDK4/D @ 0.1 μM; for inhibition at 1 µM / % Inhib CDK4/D @ 1 μM: test compound at 1 μM (head line shifted: 'mM' printed beside 'Structure'); for inhibition at 1 µM: read-out: % Inhib CDK4/D @ 1 μM; for inhibition at 0.03 µM / % Inhib CDK4/D @ 0.03: test compound at 0.03 (unit cell empty, head line shifted; μM); for inhibition at 0.03 µM: read-out: % Inhib CDK4/D @ 0.03. The method, boiled down: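 Apparent Ki derived by fitting activity at varied inhibitor concentrations to competitive (or competitive tight-binding) inhibition equations, background without enzyme subtracted. Radiometric filter-binding read-out of Rb(386-928) phosphorylation by 5 nM CDK4/cyclin D3(1-264); 25 μM ATP, pH 7.4, 2% DMSO, 30° C., 20 min, extended to 60 min for tight binders.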

pKi: −log10 of the molar value.

T1 sequence (P11802 whole entry): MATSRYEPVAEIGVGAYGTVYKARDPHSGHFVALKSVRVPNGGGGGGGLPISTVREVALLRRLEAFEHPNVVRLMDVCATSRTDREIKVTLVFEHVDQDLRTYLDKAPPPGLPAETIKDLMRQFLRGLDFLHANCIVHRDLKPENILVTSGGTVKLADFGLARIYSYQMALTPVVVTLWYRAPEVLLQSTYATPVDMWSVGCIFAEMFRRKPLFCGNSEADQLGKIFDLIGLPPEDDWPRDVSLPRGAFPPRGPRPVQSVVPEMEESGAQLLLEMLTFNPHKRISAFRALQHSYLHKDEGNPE
T1 sequence (P30281 1-264 partner limits assumed): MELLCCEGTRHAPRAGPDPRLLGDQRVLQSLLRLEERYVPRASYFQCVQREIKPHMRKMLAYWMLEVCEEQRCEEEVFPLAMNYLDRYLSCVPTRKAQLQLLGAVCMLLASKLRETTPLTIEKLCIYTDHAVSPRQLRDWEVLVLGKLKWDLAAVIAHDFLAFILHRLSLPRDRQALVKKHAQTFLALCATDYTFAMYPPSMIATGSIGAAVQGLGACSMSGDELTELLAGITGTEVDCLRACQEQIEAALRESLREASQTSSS

`CCC[S+]([O-])c1ccc(Nc2nc(N)c(C(=O)c3c(Cl)cccc3Cl)s2)cc1` (stereo not shown) [DD(105)]: the inhibition at 0.1 µM was determined as 39%, the inhibition at 1 µM was found to be 61.9% and the inhibition at 0.03 µM was found to be 0.9%.
In the same order, the values of `CC1(CSc2cccc(Nc3nc(N)c(C(=O)c4c(Cl)cccc4Cl)s3)c2)CO1` (stereo not shown) [DD(60)] are 39%, 80.1% and 22%.
On to `Nc1nc(Nc2ccc(S(=O)(=O)CCN3CCOCC3)cc2)sc1C(=O)c1c(Cl)cccc1Cl` [DD(239)], for which the “% Inhib CDK4/D @ 0.1 μM” value was determined as 27%, the “% Inhib CDK4/D @ 1 μM” value is listed as 8% and the “% Inhib CDK4/D @ 0.03” value stood at 12%.
As for `NC(=O)CSc1ccc(Nc2nc(N)c(C(=O)c3c(Cl)cccc3Cl)s2)cc1` [DD(21)], the inhibition at 0.1 µM is 67%, the inhibition at 1 µM worked out at 85.5% and the inhibition at 0.03 µM amounted to 50%.
In the same order, the values of `CCN(CC)C(=O)C[S+]([O-])c1cccc(Nc2nc(N)c(C(=O)c3c(Cl)cccc3Cl)s2)c1` (stereo not shown) [DD(121)] are 41%, 59.8% and -0.5%.
As for `COc1cccc(C[S+]([O-])c2cccc(Nc3nc(N)c(C(=O)c4c(Cl)cccc4Cl)s3)c2)c1` (stereo not shown) [DD(137)], the inhibition at 0.1 µM worked out at 22%, the inhibition at 1 µM is 36.7% and the inhibition at 0.03 µM was -1.7%.
`Nc1nc(Nc2ccc(S(=O)(=O)CC3CNC(=O)O3)cc2)sc1C(=O)c1c(Cl)cccc1Cl` (stereo not shown) [DD(169)]: the “% Inhib CDK4/D @ 0.1 μM” value amounted to 33%, the “% Inhib CDK4/D @ 1 μM” value was found to be 36.4% and the “% Inhib CDK4/D @ 0.03” value came to 44%.
For `Nc1nc(Nc2ccc(S(=O)(=O)Cc3ncon3)cc2)sc1C(=O)c1c(Cl)cccc1Cl` [DD(168)], the “% Inhib CDK4/D @ 0.1 μM” value was 7.8%, the inhibition at 1 µM was 30.7% and the “% Inhib CDK4/D @ 0.03” value was 8.3%.
`NC(=O)CCS(=O)(=O)c1ccc(Nc2nc(N)c(C(=O)c3c(Cl)cccc3Cl)s2)cc1` [DD(188)]: the inhibition at 0.1 µM was 35%, the inhibition at 1 µM worked out at 25.9% and the “% Inhib CDK4/D @ 0.03” value is −11%.
As for `CC(C)OC(=O)C[S+]([O-])c1ccc(Nc2nc(N)c(C(=O)c3c(Cl)cccc3Cl)s2)cc1` (stereo not shown) [DD(103)], the inhibition at 0.1 µM was 38%, the inhibition at 1 µM was 47.5% and the inhibition at 0.03 µM is -2.9%.
In the same order, the values of `Nc1nc(Nc2ccc(SCCN3CCCCC3)cc2)sc1C(=O)c1c(Cl)cccc1Cl` [DD(11)] are 28%, 78.1% and 4.2%.
In the same order, the values of `CCOC(=O)CC[S+]([O-])c1ccc(Nc2nc(N)c(C(=O)c3c(Cl)cccc3Cl)s2)cc1` (stereo not shown) [DD(102)] are 42%, 46.2% and 2.1%.
In the same order, the values of `Nc1nc(Nc2cccc(SCC(=O)Nc3ccccc3)c2)sc1C(=O)c1c(Cl)cccc1Cl` [DD(55)] are 24%, 63.4% and 17%.
Consider `Nc1nc(Nc2ccc(Sc3ccncc3)cc2)sc1C(=O)c1c(Cl)cccc1Cl` [W(1), 4-Amino-5-(2,6-dichloro-benzoyl)-2-[4-(pyridin-4-ylthio)-phenylamino]-thiazole], for which, for the setting “apparent Ki, Rb fragment substrate”, the negative-log Ki (pKi) was 7.05.
For the compound `CN1CCCC(C[S+]([O-])c2ccc(Nc3nc(N)c(C(=O)c4c(Cl)cccc4Cl)s3)cc2)C1` (stereo not shown) [DD(107)], the inhibition at 0.1 µM is 28%, the inhibition at 1 µM was determined as 47.3% and the inhibition at 0.03 µM is -11%.
In the same order, the values of `CN(C)CCS(=O)(=O)c1ccc(Nc2nc(N)c(C(=O)c3c(Cl)cccc3Cl)s2)cc1` [DD(232)] are 26%, 17.6% and 3.7%.
Take `Nc1nc(Nc2cccc(SCCN3CCOCC3)c2)sc1C(=O)c1c(Cl)cccc1Cl` [DD(79)]: the inhibition at 0.1 µM was 4.3%, the inhibition at 1 µM worked out at 62.3% and the inhibition at 0.03 µM stood at 9.1%.
